Assay: Bristol Stool Chart
Assay type: in vivo, human
Conditions: for Bristol Stool: GLU condition, mean ± SD
Excerpt: The remainder of the study consisted of two identical patterns of testing with the exception of what supplementation protocol was followed. FIG. 1 provides a flowchart of the experimental design. Prior to each visit, food and physical activity logs were completed encompassing four days prior to the scheduled laboratory visit. The four days consisted of two weekend days and two weekdays. Each participant reported to the laboratory for a baseline measurement of height, weight, heart rate, and blood pressure. During this visit, participants completed the Bristol Stool Chart and Gastrointestinal Symptom Rating Scale (GSRS) to assess bowel habits and potential gastrointestinal symptoms. Participants were given instructions on how to collect a stool sample and were instructed to do so within 24 hours of each planned study visit. At the completion of this study visit, participants were provided with their first assigned supplement (either PLA [placebo] or GLU [glucosamine]) and instructed to begin supplementation 21 days prior to their second visit. Participants were instructed to collect their second stool sample on the day of their final supplementation dose. On the morning of their second study visit, participants reported to the laboratory after following identical pre-study instructions as previous visits (i.e., fasting, abstention from caffeine and exercise). Study participants again completed assessments for height, weight, heart rate, blood pressure, and questionnaires regarding their bowel habits and gastrointestinal symptoms while also providing their second stool sample and turning in completed food and activity logs. A washout period lasting a minimum of 14 days and a maximum of 21 days separated each phase of the crossover as shown in FIG. 1. […] In a double-blind manner, a glucosamine supplement (GLU) or a maltodextrin placebo (PLA) was distributed in identical opaque capsules to all participants. On a daily basis, participants were instructed to ingest three capsules, each containing 1,000 mg of glucosamine hydrochloride (GlucosaGreen®, TSI Group Ltd. MT, USA) or a placebo (maltodextrin) identical in appearance for a total of 21 days. Each visit at the beginning of the supplementation regimen (Visits 1 and 4, respectively; See FIG. 1) occurred on or before the first day of supplementation while the final day of supplementation occurred the day before each participant's follow-up visit for that study period (Visits 2 and 4, respectively). Participants were instructed to ingest the supplement 15-30 minutes before breakfast with eight fluid ounces of cold water. In the case of a missed dose, participants were instructed to consume the missed dose as soon as possible with a meal. […]

Cl.N[C@H]1C(O)O[C@H](CO)[C@@H](O)[C@@H]1O (stereo partly shown) [GLU, glucosamine hydrochloride]
Bristol Stool (Post 21 days, 3 x 1,000 mg/day oral): 3.6 ± 0.8 | Bristol Stool (Pre (baseline)): 3.3 ± 0.8 | Bristol Stool, % (PLA vs. GLU, between-group): −19.9% | Changes in Bristol Stool chart ratings within group (Post vs Pre, p=0.10): no significant changes

Reference: patent US20220395522A1, “Methods of Use of Glucosamine for Increasing Nitrogen Retention” (TSI Bioproducts (Xuzhou) Co., Ltd., priority 2021, published 2022)
